According to PubChem BioAssay (NCI):
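A five-concentration, 48-hour dose response in 96-well plates underlies each endpoint, interpolated linearly between surrounding concentrations. TGI: total growth inhibition.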

Assays:
Test in all cases: NCI anticancer screen, dose series, 48 h
786-0 renal = tested on: 786-0 renal
A498 renal = tested on: A498 renal
A549 NSCLC = tested on: A549 NSCLC
ACHN renal = tested on: ACHN renal
BT-549 breast = tested on: BT-549 breast
CAKI-1 renal = tested on: CAKI-1 renal
CCRF-CEM leukemia = tested on: CCRF-CEM leukemia
COLO 205 colon = tested on: COLO 205 colon
DLD-1 colon = tested on: DLD-1 colon
DMS 114 small cell lung = tested on: DMS 114 small cell lung
DMS 273 small cell lung = tested on: DMS 273 small cell lung
DU-145 prostate = tested on: DU-145 prostate
EKVX NSCLC = tested on: EKVX NSCLC
HCC-2998 colon = tested on: HCC-2998 colon
HCT-116 colon = tested on: HCT-116 colon
HCT-15 colon = tested on: HCT-15 colon
HL-60(TB) leukemia = tested on: HL-60(TB) leukemia
HOP-18 NSCLC = tested on: HOP-18 NSCLC
HOP-62 NSCLC = tested on: HOP-62 NSCLC
HOP-92 NSCLC = tested on: HOP-92 NSCLC
HS 578T breast = tested on: HS 578T breast
HT29 colon = tested on: HT29 colon
IGROV1 ovarian = tested on: IGROV1 ovarian
K-562 leukemia = tested on: K-562 leukemia
KM12 colon = tested on: KM12 colon
KM20L2 colon = tested on: KM20L2 colon
LOX IMVI melanoma = tested on: LOX IMVI melanoma
LXFL 529 NSCLC = tested on: LXFL 529 NSCLC
M14 melanoma = tested on: M14 melanoma
M19-MEL melanoma = tested on: M19-MEL melanoma
MALME-3M melanoma = tested on: MALME-3M melanoma
MCF7 breast = tested on: MCF7 breast
MDA-MB-231 breast = tested on: MDA-MB-231 breast
MDA-MB-435 = tested on: MDA-MB-435
MDA-N = tested on: MDA-N
MOLT-4 leukemia = tested on: MOLT-4 leukemia
NCI-H226 lung = tested on: NCI-H226 lung
NCI-H23 lung = tested on: NCI-H23 lung
NCI-H460 lung = tested on: NCI-H460 lung
NCI-H522 lung = tested on: NCI-H522 lung
NCI/ADR-RES ovarian = tested on: NCI/ADR-RES ovarian
OVCAR-3 ovarian = tested on: OVCAR-3 ovarian
OVCAR-4 ovarian = tested on: OVCAR-4 ovarian
OVCAR-5 ovarian = tested on: OVCAR-5 ovarian
OVCAR-8 ovarian = tested on: OVCAR-8 ovarian
PC-3 prostate = tested on: PC-3 prostate
RPMI-8226 leukemia = tested on: RPMI-8226 leukemia
RXF 393 renal = tested on: RXF 393 renal
SF-268 CNS = tested on: SF-268 CNS
SF-295 CNS = tested on: SF-295 CNS
SF-539 CNS = tested on: SF-539 CNS
SK-MEL-2 melanoma = tested on: SK-MEL-2 melanoma
SK-MEL-28 melanoma = tested on: SK-MEL-28 melanoma
SK-MEL-5 melanoma = tested on: SK-MEL-5 melanoma
SK-OV-3 ovarian = tested on: SK-OV-3 ovarian
SN12C renal = tested on: SN12C renal
SNB-19 CNS = tested on: SNB-19 CNS
SNB-75 CNS = tested on: SNB-75 CNS
SNB-78 CNS = tested on: SNB-78 CNS
SR leukemia = tested on: SR leukemia
SW-620 colon = tested on: SW-620 colon
T-47D breast = tested on: T-47D breast
TK-10 renal = tested on: TK-10 renal
U251 CNS = tested on: U251 CNS
UACC-257 melanoma = tested on: UACC-257 melanoma
UACC-62 melanoma = tested on: UACC-62 melanoma
UO-31 renal = tested on: UO-31 renal
XF 498 CNS = tested on: XF 498 CNS
RXF-631 renal = tested on: RXF-631 renal

Measured: TGI

O=C(O)CNCc1c2ccccc2nc2ccccc12
> 79.4 µM: SNB-75 CNS
> 78.3 µM: RXF 393 renal
87.2 µM: SF-539 CNS
> 77.6 µM: XF 498 CNS
85.4 µM: HOP-92 NSCLC
> 84.8 µM: HT29 colon
41.2 µM: CCRF-CEM leukemia
> 70.5 µM: SR leukemia
> 60.4 µM: SK-MEL-5 melanoma
> 82.7 µM: K-562 leukemia
> 94.9 µM: UACC-257 melanoma
29.6 µM: HL-60(TB) leukemia
> 45.5 µM: HCT-116 colon
> 91.5 µM: UO-31 renal
71.9 µM: RPMI-8226 leukemia
> 95.4 µM: 786-0 renal
91.1 µM: KM20L2 colon
72.7 µM: DMS 114 small cell lung
57.5 µM: NCI-H522 lung
44.9 µM: MOLT-4 leukemia
> 89.8 µM: OVCAR-4 ovarian
> 90.8 µM: CAKI-1 renal
> 86.7 µM: NCI-H460 lung
> 71 µM: LXFL 529 NSCLC
not listed: RXF-631 renal
> 100 µM: all other assays above

Cc1cccc2c1C(=O)OC2(c1cccc2ccccc12)c1cccc2ccccc12
51.4 µM: RXF-631 renal
94.3 µM: RXF 393 renal
not listed: BT-549 breast | DU-145 prostate | HOP-92 NSCLC | HS 578T breast | MCF7 breast | MDA-MB-231 breast | MDA-MB-435 | MDA-N | NCI/ADR-RES ovarian | PC-3 prostate | RPMI-8226 leukemia | SF-539 CNS | SNB-78 CNS | T-47D breast | XF 498 CNS
> 100 µM: all other assays above
